Experimental findings from patent US8278345B2, “Inhibitors of glutaminyl cyclase” (Probiodrug AG, priority 2006, dated 2012) are described below.

The assay deals with hQC (Homo sapiens, UniProt Q16769). Put plainly: Inhibitor assay for glutaminyl cyclase activity (fluorometric, H-Gln-βNA / H-Gln-AMC). The format is biochemical. Summed up:
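Ki values came from fitting progress curves to a competitive inhibition model; rapid screens used 4 mM inhibitor with substrate at KM. QC activity was read at 30 °C via auxiliary pyroglutamyl aminopeptidase releasing βNA (0.2 mM H-Gln-βNA, 0.2 M Tris pH 8.0, 20 mM EDTA) or AMC (0.05 M Tris pH 8.0, 5 mM EDTA).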

Where two headings read alike, the source gives them in different places.

hQC, sequence (Q16769 29-361): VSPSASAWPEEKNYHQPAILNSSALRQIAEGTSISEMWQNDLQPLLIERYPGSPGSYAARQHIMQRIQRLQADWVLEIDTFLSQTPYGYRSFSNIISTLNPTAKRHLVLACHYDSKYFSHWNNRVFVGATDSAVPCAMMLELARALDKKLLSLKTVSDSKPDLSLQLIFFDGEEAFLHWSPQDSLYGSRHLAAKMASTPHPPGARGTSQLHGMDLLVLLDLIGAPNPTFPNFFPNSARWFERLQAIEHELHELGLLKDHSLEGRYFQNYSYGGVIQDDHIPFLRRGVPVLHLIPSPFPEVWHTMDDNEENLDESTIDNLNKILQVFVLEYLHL

Regarding `CCC(C)C1C(F)=C(O)C(=O)N1CCCn1ccnc1` (centres unmarked) [Compound 1, 5-sec-Butyl-4-fluoro-3-hydroxy-1-(3-imidazol-1-yl-propyl)-1,5-dihydro-pyrrol-2-one], the IC50 – broadly, the concentration that inhibits the measured activity by half – (read-out: IC50) is 3100 nM. The same measure, in the same setting: then `CC(=O)C1=C(O)C(=O)N(c2ccc3[nH]cnc3c2)C1c1cccc(C)n1` (centres unmarked) [Compound 330, 4-Acetyl-1-(1H-benzoimidazol-5-yl)-3-hydroxy-5-(6-methyl-pyridin-2-yl)-1,5-dihydro-pyrrol-2-one], with 2110 nM; and `O=C1C(O)=C(c2c[nH]c3ccccc23)C(c2ccc(O)cc2)N1CCCn1ccnc1` (centres unmarked) [Compound 145, 3-Hydroxy-5-(4-hydroxy-phenyl)-1-(3-imidazol-1-yl-propyl)-4-(1H-indol-3-yl)-1,5-dihydro-pyrrol-2-one], with 400 nM. For the compound `Cc1ccc2c(C3C(c4c[nH]c5ccccc45)=C(O)C(=O)N3CCCn3ccnc3)c[nH]c2c1` (centres unmarked) [Compound 130, 3-Hydroxy-1-(3-imidazol-1-yl-propyl)-4-(1H-indol-3-yl)-5-(6-methyl-1H-indol-3-yl)-1,5-dihydro-pyrrol-2-one], the IC50 (read-out: IC50) came out at 1300 nM. For the compound `CC(=O)C1=C(O)C(=O)N(c2ccc3[nH]cnc3c2)C1c1ccc(CO)o1` (centres unmarked) [Compound 352, 4-Acetyl-1-(1H-benzoimidazol-5-yl)-3-hydroxy-5-(5-hydroxymethyl-furan-2-yl)-1,5-dihydro-pyrrol-2-one], the 50% inhibitory concentration (IC50) (read-out: IC50) turned out to be 4 nM. As to `Cc1ccc(C2C(C(=O)c3cccs3)=C(O)C(=O)N2c2ccc3[nH]cnc3c2)o1` (centres unmarked) [Compound 321, 1-(1H-Benzoimidazol-5-yl)-3-hydroxy-5-(5-methyl-furan-2-yl)-4-(thiophene-2-carbonyl)-1,5-dihydro-pyrrol-2-one], where the note is “read-out: IC50”, the IC50 is 760 nM. On the same count and under the same terms, the result for `CC(=O)C1=C(O)C(=O)N(c2ccc3[nH]cnc3c2)C1c1ccnc2ccccc12` (centres unmarked) [Compound 318, 4-Acetyl-1-(1H-benzoimidazol-5-yl)-3-hydroxy-5-quinolin-4-yl-1,5-dihydro-pyrrol-2-one] reads 1750 nM. The same measure, in the same setting: then `Cc1ccc2occ(C3C(C(C)C)=C(O)C(=O)N3c3ccc4[nH]cnc4c3)c(=O)c2c1` (centres unmarked) [Compound 331, 1-(1H-Benzoimidazol-5-yl)-3-hydroxy-4-isopropyl-5-(6-methyl-4-oxo-4H-chromen-3-yl)-1,5-dihydro-pyrrol-2-one], with 1390 nM.

Consider `CCC1=C(O)C(=O)N(c2ccc3[nH]cnc3c2)C1c1ccc(N2CCCC2)cc1` (centres unmarked) [Compound 406, 1-(1H-Benzoimidazol-5-yl)-4-ethyl-3-hydroxy-5-(4-pyrrolidin-1-yl-phenyl)-1,5-dihydro-pyrrol-2-one], for which the IC50 (read-out: IC50) was 8320 nM. For `CCCCCC1C(c2cccc(O)c2)=C(O)C(=O)N1CCCn1ccnc1` (centres unmarked) [Compound 16, 3-Hydroxy-4-(3-hydroxy-phenyl)-1-(3-imidazol-1-yl-propyl)-5-pentyl-1,5-dihydro-pyrrol-2-one], for the setting “read-out: IC50”, the half-maximal inhibitory concentration (IC50) is 400 nM. Take `CCC1=C(O)C(=O)N(CCCn2ccnc2)C1c1ccc(OC)cc1` (centres unmarked) [Compound 229, 4-Ethyl-3-hydroxy-1-(3-imidazol-1-yl-propyl)-5-(4-methoxy-phenyl)-1,5-dihydro-pyrrol-2-one]: the half-inhibitory concentration (IC50) (read-out: IC50) is 40 nM. On the same count and under the same terms, then `O=C1C(O)=C(c2c[nH]c3ccccc23)C(c2ccc(CO)o2)N1c1ccc2[nH]cnc2c1` (centres unmarked) [Compound 409, 1-(1H-Benzoimidazol-5-yl)-3-hydroxy-5-(5-hydroxymethyl-furan-2-yl)-4-(1H-indol-3-yl)-1,5-dihydro-pyrrol-2-one], with 670 nM; and `CC(C)(C)C(=O)C1=C(O)C(=O)N(c2ccc3[nH]cnc3c2)C1c1cc[nH]n1` (centres unmarked) [Compound 405, 1-(1H-Benzoimidazol-5-yl)-4-(2,2-dimethyl-propionyl)-3-hydroxy-5-(1H-pyrazol-3-yl)-1,5-dihydro-pyrrol-2-one], with 2200 nM; and `CCC1=C(O)C(=O)N(c2ccc3[nH]cnc3c2)C1c1cc(C)c(C)o1` (centres unmarked) [Compound 340, 1-(1H-Benzoimidazol-5-yl)-5-(4,5-dimethyl-furan-2-yl)-4-ethyl-3-hydroxy-1,5-dihydro-pyrrol-2-one], with 3370 nM. Still for that read-out and setting: then `O=C(O)CC1=C(O)C(=O)N(c2ccc3[nH]cnc3c2)C1c1cccc(F)c1` (centres unmarked) [Compound 311, [1-(1H-Benzoimidazol-5-yl)-2-(3-fluoro-phenyl)-4-hydroxy-5-oxo-2,5-dihydro-1H-pyrrol-3-yl]-acetic acid], with 4540 nM. In the case of `CC(C)CC(=O)C1=C(O)C(=O)N(c2ccc3[nH]cnc3c2)C1c1cc[nH]n1` (centres unmarked) [Compound 427, 1-(1H-Benzoimidazol-5-yl)-3-hydroxy-4-(3-methyl-butyryl)-5-(1H-pyrazol-3-yl)-1,5-dihydro-pyrrol-2-one], the IC50 (read-out: IC50) was 7960 nM. As for `CC(C)C1=C(O)C(=O)N(c2ccc3[nH]cnc3c2)C1c1ccco1` (centres unmarked) [Compound 371, 1-(1H-Benzoimidazol-5-yl)-5-furan-2-yl-3-hydroxy-4-isopropyl-1,5-dihydro-pyrrol-2-one], the IC50 (read-out: IC50) turned out to be 5530 nM. Same read-out and setting: the result for `CCCC(=O)C1=C(O)C(=O)N(c2ccc3[nH]cnc3c2)C1c1ccc(CO)o1` (centres unmarked) [Compound 432, 1-(1H-Benzoimidazol-5-yl)-4-butyryl-3-hydroxy-5-(5-hydroxymethyl-furan-2-yl)-1,5-dihydro-pyrrol-2-one] reads 2650 nM. Still for that read-out and setting: the result for `Cc1ccc(C2C(c3cccc(O)c3)=C(O)C(=O)N2CCCn2ccnc2)cc1` (centres unmarked) [Compound 5, 3-Hydroxy-4-(3-hydroxy-phenyl)-1-(3-imidazol-1-yl-propyl)-5-p-tolyl-1,5-dihydro-pyrrol-2-one] reads 2200 nM; that for `O=C1C(O)=C(c2c[nH]c3ccccc23)C(c2ncc[nH]2)N1CCCn1ccnc1` (centres unmarked) [Compound 133, 3-Hydroxy-5-(1H-imidazol-2-yl)-1-(3-imidazol-1-yl-propyl)-4-(1H-indol-3-yl)-1,5-dihydro-pyrrol-2-one], 1300 nM; that for `O=C1C(O)=C(c2c[nH]c3ccccc23)C(c2ccc3nonc3c2)N1c1ccc2[nH]cnc2c1` (centres unmarked) [Compound 390, 1-(1H-Benzoimidazol-5-yl)-5-(benzo[c][1,2,5]oxadiazol-5-yl)-3-hydroxy-4-(1H-indol-3-yl)-1,5-dihydro-pyrrol-2-one], 40 nM. On the same count and under the same terms, then `CC(=O)C1=C(O)C(=O)N(c2ccc3[nH]cnc3c2)C1C1COC(C)(C)O1` (centres unmarked) [Compound 295, 4-Acetyl-1-(1H-benzoimidazol-5-yl)-5-(2,2-dimethyl-[1,3]dioxolan-4-yl)-3-hydroxy-1,5-dihydro-pyrrol-2-one], with 9850 nM. On to `COc1ccc(C2C(c3ccccc3)=C(O)C(=O)N2CCCn2ccnc2)cc1` (centres unmarked) [Compound 86, 3-Hydroxy-1-(3-imidazol-1-yl-propyl)-5-(4-methoxy-phenyl)-4-phenyl-1,5-dihydro-pyrrol-2-one], for which the IC50 turned out to be 1230 nM (compound from preparative synthesis, purified, read-out: IC50 hQC) and 40 nM (read-out: IC50). As for `O=C1C(O)=C(c2cccc(O)c2)C(c2ccc3cccc(O)c3n2)N1c1ccc2[nH]cnc2c1` (centres unmarked) [Compound 304, 1-(1H-Benzoimidazol-5-yl)-3-hydroxy-4-(3-hydroxy-phenyl)-5-(8-hydroxy-quinolin-2-yl)-1,5-dihydro-pyrrol-2-one], the IC50 (read-out: IC50) amounted to 220 nM.

On to `O=C(C1=C(O)C(=O)N(c2ccc3[nH]cnc3c2)C1c1ccc(Cl)c(C(F)(F)F)c1)c1cc2ccccc2s1` (centres unmarked) [Compound 257, 4-(Benzo[b]thiophene-2-carbonyl)-1-(1H-benzoimidazol-5-yl)-5-(4-chloro-3-trifluoromethyl-phenyl)-3-hydroxy-1,5-dihydro-pyrrol-2-one], for which the IC50 (read-out: IC50) worked out at 3370 nM.
